As a reminder, the TGI is the concentration at which net growth stops. A higher TGI goes with lower sensitivity of the cells.

Some test systems named below: HCT-15 colon; HS 578T breast; HT29 colon; LOX IMVI melanoma; MDA-MB-231 breast; MOLT-4 leukemia; OVCAR-8 ovarian; SF-268 CNS; SK-MEL-2 melanoma; SN12C renal; T-47D breast.
Common to all, as to assay: DTP human tumour cell line panel, 48 h

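Tested at 5 concentrations; 48 h exposure; 96-well plates; endpoints linearly interpolated, else capped at highest concentration. TGI is the concentration that stops growth completely.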 Bounds are passed on as bounds.

Take `CC(=O)c1ccc(Nc2nc3ccccc3c3occc23)cc1`: the TGI was 33.8 µM in the experiment on HCT-15 colon; 54.1 µM in the experiment with HS 578T breast; 17.3 µM in the experiment with HT29 colon; 61.7 µM with LOX IMVI melanoma; > 100 µM in the experiment with MDA-MB-231 breast; 11.9 µM with MOLT-4 leukemia. For the same compound, the TGI is > 100 µM in the experiment with OVCAR-8 ovarian; 75.7 µM with SF-268 CNS; 48.6 µM in the experiment with SK-MEL-2 melanoma; > 100 µM with SN12C renal; 29.9 µM in the experiment with T-47D breast.

The values are drawn from PubChem BioAssay (NCI).
